Patent US10294202B2, “Pyrrolidinones as herbicides” (FMC Corporation, priority 2013, dated 2019)

Tests used:
morningglory = experiment: Test E preemergence herbicide test; assay type: in vivo, Ipomoea coccinea; parameters: key: 0 = no effect, 100 = complete control
How it was run: (§1)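 Test chemicals, formulated in a surfactant-containing non-phytotoxic solvent blend, are applied preemergence to seeded silt loam soil. After 21 days in the greenhouse, response is scored visually relative to controls, where 100 means complete control and 0 means no effect.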

waterhemp = experiment: Test E preemergence herbicide test; assay type: in vivo, Amaranthus rudis; parameters: key: 0 = no effect, 100 = complete control
Text: (§2) Seeds of plant species selected from corn (Zea mays), soybean (Glycine max), velvetleaf (Abutilon theophrasti), lambsquarters (Chenopodium album), wild poinsettia (Euphorbia heterophylla), pigweed, palmer (palmer pigweed, Amaranthus palmeri), waterhemp (common waterhemp, Amaranthus rudis), surinam grass (Brachiaria decumbens), crabgrass, large (large crabgrass, Digitaria sanguinalis), crabgrass, Brazil (Brazilian crabgrass, Digitaria horizontalis), panicum, fall (fall panicum, Panicum dichotomiflorum), foxtail, giant (giant foxtail, Setaria faberii), foxtail, green (green foxtail, Setaria viridis), goosegrass (Eleusine indica), johnsongrass (Sorghum halepense), ragweed (common ragweed, Ambrosia elatior), barnyardgrass (Echinochloa crus-galli), sandbur (southern sandbur, Cenchrus echinatus), arrowleaf […] rhombifolia), ryegrass, Italian (Italian ryegrass, Lolium multiflorum), dayflower, VA (Virginia dayflower, Commelina virginica), field bindweed (Convolvulus arvensis), morningglory (Ipomoea coccinea), nightshade (eastern black nightshade, Solanum ptycanthum), kochia (Kochia scoparia), nutsedge, yellow (yellow nutsedge, Cyperus esculentus), cocklebur (common cocklebur, Xanthium strumarium), smartweed (ladysthumb smartweed, Polygonum Persicaria) and beggarticks (hairy beggarticks, Bidens pilosa), were planted into a silt loam soil and treated preemergence with test chemicals formulated in a non-phytotoxic solvent mixture which included a surfactant. Treated plants and controls were maintained in a greenhouse for 21 days, after which time all species were compared to controls and visually evaluated. Plant response ratings, summarized in Table E, are based on a scale of 0 to 100 where 0 is no effect and 100 is complete control. A dash (-) response means no test result.

barnyardgrass = experiment: Test F flood (paddy) test; assay type: in vivo, Echinochloa crus-galli; details: 21 d, scale 0-100
How it was run: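 Greenhouse paddy, 30/27 °C day/night, 16-h light; sterilized Tama silt loam, 2.6% OM. Plants at 2.0–2.5 leaves; flood 3 cm, compound added directly to water. Visual score at 21 d, 0 = no effect, 100 = complete control, relative to untreated.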

field violet = experiment: Test D pre-/postemergence herbicide test; assay type: in vivo, Viola arvensis; details: Preemergence; for Plant response rating, Field Violet: scale 0 to 100 (0 no effect, 100 complete control); for Plant response rating: 250 g ai/ha, Field Violet, scale 0 to 100
How it was run: (§3)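 Visual injury score, 0 (no effect) to 100 (complete control), taken 7–21 d post-treatment against untreated controls. Application was preemergence in silt loam and postemergence at 1- to 4-leaf stage, using a surfactant-containing non-phytotoxic solvent formulation.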

oat, wild = experiment: Test D pre-/postemergence herbicide test; assay type: in vivo, Avena fatua; details: Preemergence, scale 0 to 100 (0 no effect, 100 complete control)
How it was run: as §3

field bindweed = experiment: Test E preemergence herbicide test; assay type: in vivo, Convolvulus arvensis; parameters: key: 0 = no effect, 100 = complete control
Text: as §2

foxtail, giant = experiment: Test E preemergence herbicide test; assay type: in vivo, Setaria faberii; parameters: key: 0 = no effect, 100 = complete control
How it was run: as §1

Structure (SMILES)	Plant response rating, Morningglory (morningglory; 31 g ai/ha)	Plant response rating, Morningglory (morningglory; 62 g ai/ha)	Plant response rating, Morningglory (morningglory; 125 g ai/ha)	Plant response rating, Morningglory (morningglory; 250 g ai/ha)	Plant response rating, Waterhemp (waterhemp; 31 g ai/ha)	Plant response rating, Waterhemp (waterhemp; 125 g ai/ha)	Plant response rating, Waterhemp (waterhemp; 250 g ai/ha)	Plant response rating, Barnyardgrass (barnyardgrass; 125 g ai/ha)	Plant response rating, Barnyardgrass (barnyardgrass; 250 g ai/ha)	Plant response rating, Barnyardgrass (barnyardgrass; 500 g ai/ha)	Plant response rating, Field Violet (field violet; 62 g ai/ha)	Plant response rating, Field Violet (field violet; 125 g ai/ha)	Plant response rating, Field Violet (field violet; 31 g ai/ha)	Plant response rating (field violet)	Plant response rating, Oat, Wild (oat, wild; 62 g ai/ha)	Plant response rating, Oat, Wild (oat, wild; 125 g ai/ha)	Plant response rating, Oat, Wild (oat, wild; 31 g ai/ha)	Plant response rating, Oat, Wild (oat, wild; 250 g ai/ha)	Plant response rating, Field Bindweed (field bindweed; 31 g ai/ha)	Plant response rating, Field Bindweed (field bindweed; 62 g ai/ha)	also measured
O=C1NC[C@H](c2cccc(C(F)(F)F)c2)[C@H]1C(=O)Nc1cccc(F)c1F [Compound 206]	0	0	0	0	50	50	50	100	100	100	35	35	15	25	35	40	25	55	20	20	Plant response rating, Barnyardgrass (barnyardgrass; 64 g ai/ha): 90; Plant response rating, Field Bindweed (field bindweed; 125 g ai/ha): 30; Plant response rating, Field Bindweed (field bindweed; 250 g ai/ha): 50; Plant response rating, Foxtail, Giant (foxtail, giant; 31 g ai/ha): 90; Plant response rating, Foxtail, Giant (foxtail, giant; 62 g ai/ha): 98; Plant response rating, Foxtail, Giant (foxtail, giant; 125 g ai/ha): 98; Plant response rating, Foxtail, Giant (foxtail, giant; 250 g ai/ha): 98
O=C1NC[C@H](c2cccc(C(F)(F)F)c2)[C@H]1C(=O)Nc1ccccc1F [Compound 204, (3R,4S)—N-(2-fluorophenyl)-2-oxo-4-[3-(trifluoromethyl)phenyl]-3-pyrrolidinecarboxamide]	0	0	20	30	0	0	0	100	100	100	15	25	10	25	25	60	0	40	0	0	Plant response rating, Waterhemp (waterhemp; 62 g ai/ha): 0; Plant response rating, Field Bindweed (field bindweed; 125 g ai/ha): 0; Plant response rating, Field Bindweed (field bindweed; 250 g ai/ha): 30; Plant response rating, Foxtail, Giant (foxtail, giant; 31 g ai/ha): 50; Plant response rating, Foxtail, Giant (foxtail, giant; 62 g ai/ha): 95; Plant response rating, Foxtail, Giant (foxtail, giant; 125 g ai/ha): 95; Plant response rating, Foxtail, Giant (foxtail, giant; 250 g ai/ha): 98
